# From paper PMC11502502 (Nature cancer, 2024)
# Where “and” joins values, the source holds several entries; their conditions need not be identical. Identical values can stand only once. Like-named read-outs stand apart in the source and are kept apart here.
# How the values were obtained:
# [1] = system: hiPS cell-derived cardiomyocytes; assay: hiPS cell-derived cardiomyocytes: cell viability (ATP levels, cell titer glow)
# [2] = system: hiPS cell-derived cardiomyocytes; assay: hiPS cell-derived cardiomyocytes: extracellular LDH; type: cell-based, human; conditions: 1 μM, 72 h
# [3] = system: hiPS cell-derived cardiomyocytes; assay: hiPS cell-derived cardiomyocytes: DAPI-stained number of nuclei; type: cell-based, human
# [4] = system: hiPS cell-derived cardiomyocytes; assay: hiPS cell-derived cardiomyocytes: activation of caspases 3 and 7; type: cell-based, human; conditions: 1 μM, 72 h
# [5] = system: hiPS cell-derived cardiomyocytes; assay: hiPS cell-derived cardiomyocytes: extracellular troponin I (AlphaLISA); type: cell-based, human
# KMS-12-BM = assay: CellTiter-Glo cell viability, KMS-12-BM; type: cell-based; conditions: Homo sapiens, 72 h
# KMS-12-PE = assay: CellTiter-Glo cell viability, KMS-12-PE; type: cell-based; conditions: Homo sapiens, 72 h
# SNU-16 = assay: CellTiter-Glo cell viability, SNU-16; type: cell-based; conditions: Homo sapiens, SNU-16, 72 h
# PA-1 = assay: CellTiter-Glo cell viability, PA-1; type: cell-based; conditions: Homo sapiens, PA-1, 72 h
# RPMI 8226 = assay: CellTiter-Glo cell viability, RPMI 8226; type: cell-based; conditions: Homo sapiens, RPMI-8226, 72 h
# A-427 = assay: CellTiter-Glo cell viability, A-427; type: cell-based; conditions: Homo sapiens, A-427, 72 h
# A-431 = assay: CellTiter-Glo cell viability, A-431; type: cell-based; conditions: Homo sapiens, A-431, 72 h
# JJN-3 = assay: CellTiter-Glo cell viability, JJN-3; type: cell-based; conditions: Homo sapiens, JJN-3, 72 h
# DMS114 = assay: CellTiter-Glo cell viability, DMS114; type: cell-based; conditions: Homo sapiens, DMS-114, 72 h
# NCI-H82 = assay: CellTiter-Glo cell viability, NCI-H82; type: cell-based; conditions: Homo sapiens, NCI-H82, 72 h
# SNU398 = assay: CellTiter-Glo cell viability, SNU398; type: cell-based; conditions: Homo sapiens, SNU-398, 72 h
# HCC-1187 = assay: CellTiter-Glo cell viability, HCC-1187; type: cell-based; conditions: Homo sapiens, HCC1187, 72 h
# HCC-2157 = assay: CellTiter-Glo cell viability, HCC-2157; type: cell-based; conditions: Homo sapiens, HCC2157, 72 h
# MOLP-8 = assay: CellTiter-Glo cell viability, MOLP-8; type: cell-based; conditions: Homo sapiens, MOLP-8, 72 h
# SU-DHL-5 = assay: CellTiter-Glo cell viability, SU-DHL-5; type: cell-based; conditions: Homo sapiens, SU-DHL-5, 72 h
# AMO-1 = assay: CellTiter-Glo cell viability, AMO-1; type: cell-based; conditions: Homo sapiens, AMO1, 72 h
# OPM-2 = assay: CellTiter-Glo cell viability, OPM-2; type: cell-based; conditions: Homo sapiens, OPM-2, 72 h
# HMC1–8 = assay: CellTiter-Glo cell viability, HMC1–8; type: cell-based; conditions: Homo sapiens, 72 h
# [6] = Protein-binding assay with equilibrium dialysis in cell culture medium; type: in vitro ADME; conditions: bovine, cell culture medium with 10% fetal calf serum
# SU-DHL-10 = assay: CellTiter-Glo cell viability, SU-DHL-10; type: cell-based; conditions: Homo sapiens, SU-DHL10, 72 h
# [7] = read-out: Anti-proliferative IC50
# [8] = read-out: Antiproliferative IC50u
smiles,measurement,setting,value
COc1cccc2c1C(=O)c1c(O)c3c(c(O)c1C2=O)C[C@@](O)(C(=O)CO)C[C@@H]3O[C@H]1C[C@H](N)[C@H](O)[C@H](C)O1 [doxorubicin],ATP levels,"[1]; 1 μM, 72 h",reduced ATP levels
same,Cell viability via cell titer glow,"[1]; Doxorubicin - wash, 3h",0.9604 and 0.941 and 0.9405
same,Cell viability via cell titer glow,"[1]; Doxorubicin - wash, 6h",0.9905 and 0.9749 and 0.9586
same,Cell viability via cell titer glow,"[1]; Doxorubicin - wash, 24h",0.9393 and 0.938 and 0.976
same,Cell viability via cell titer glow,"[1]; Doxorubicin - wash, 48h",0.6883 and 0.7253 and 0.7219
same,Cell viability via cell titer glow,"[1]; Doxorubicin - wash, 72h",0.5187 and 0.5467 and 0.5116
same,Cell viability via cell titer glow,"[1]; Doxorubicin, 3h",0.9456 and 0.9453 and 0.963
same,Cell viability via cell titer glow,"[1]; Doxorubicin, 6h",0.9853 and 1.049 and 1.001
same,Cell viability via cell titer glow,"[1]; Doxorubicin, 24h",0.9003 and 0.8578 and 0.8897
same,Cell viability via cell titer glow,"[1]; Doxorubicin, 48h",0.5823 and 0.6777 and 0.6323
same,Cell viability via cell titer glow,"[1]; Doxorubicin, 72h",0.4355 and 0.3955 and 0.4606
same,LDH release,[2],increased LDH release
same,Nuclear counts,"[3]; 1 μM, 72 h",decreased nuclear counts
same,DAPI stained number of nuclei,"[3]; Doxorubicin - wash, 3h",0.4105 and 0.3857 and 0.4592
same,DAPI stained number of nuclei,"[3]; Doxorubicin - wash, 6h",0.9721 and 0.9984 and 0.8453
same,DAPI stained number of nuclei,"[3]; Doxorubicin - wash, 24h",0.5586 and 0.4572 and 0.5102
same,DAPI stained number of nuclei,"[3]; Doxorubicin - wash, 48h",0.8181 and 0.8435 and 0.8812
same,DAPI stained number of nuclei,"[3]; Doxorubicin - wash, 72h",0.2447 and 0.2247 and 0.2518
same,DAPI stained number of nuclei,"[3]; Doxorubicin, 3h",0.3508 and 0.3671 and 0.4582
same,DAPI stained number of nuclei,"[3]; Doxorubicin, 6h",0.9886 and 0.9511 and 0.985
same,DAPI stained number of nuclei,"[3]; Doxorubicin, 24h",0.3141 and 0.2601 and 0.2627
same,DAPI stained number of nuclei,"[3]; Doxorubicin, 48h",0.2344 and 0.4107 and 0.4046
same,Caspase 3 activation,[4],time-dependent activation of caspase 3
same,Extracellular troponin I,"[5]; Doxorubicin - wash, 48h",5.76 and 7.195 and 6.893
same,Extracellular troponin I,"[5]; Doxorubicin - wash, 72h",12.7295 and 11.4567 and 13.7321
same,Extracellular troponin I,"[5]; Doxorubicin, 3h",0.7061 and 0.6741 and 0.6927
same,Extracellular troponin I,"[5]; Doxorubicin, 6h",2.491 and 1.893 and 3.419
same,Extracellular troponin I,"[5]; Doxorubicin, 48h",9.842 and 16.5962 and 13.2372
same,Extracellular troponin I,"[5]; Doxorubicin, 72h",30.5761 and 27.6931 and 29.1909
Cc1c2c(nn1C)CSCc1cc(n(C)n1)CSc1cc(c3ccccc3c1)OCCCc1c(C(=O)O)n(C)c3c-2c(Cl)ccc13 [AZD5991],IC50,KMS-12-BM; [7],33 nM
same,IC50,KMS-12-BM; [8],0.7 nM
same,IC50,KMS-12-PE; [7],210 nM
same,IC50,KMS-12-PE; [8],4.4 nM
same,IC50,SNU-16; [7],267 nM
same,IC50,SNU-16; [8],5.6 nM
same,IC50,PA-1; [7],105 nM
same,IC50,PA-1; [8],2.2 nM
same,IC50,RPMI 8226; [7],62 nM
same,IC50,RPMI 8226; [8],1.3 nM
same,IC50,A-427; [7],52 nM
same,IC50,A-427; [8],1.1 nM
same,IC50,A-431; [7],219 nM
same,IC50,A-431; [8],4.6 nM
same,IC50,JJN-3; [7],71 nM
same,IC50,JJN-3; [8],1.5 nM
same,IC50,DMS114; [7],71 nM
same,IC50,DMS114; [8],1.5 nM
same,IC50,NCI-H82; [7],162 nM
same,IC50,NCI-H82; [8],3.4 nM
same,IC50,SNU398; [7],52 nM
same,IC50,SNU398; [8],1.1 nM
same,IC50,HCC-1187; [7],52 nM
same,IC50,HCC-1187; [8],1.1 nM
same,IC50,HCC-2157; [7],95 nM
same,IC50,HCC-2157; [8],2 nM
same,IC50,MOLP-8; [7],38 nM
same,IC50,MOLP-8; [8],0.8 nM
same,IC50,SU-DHL-5; [7],14 nM
same,IC50,SU-DHL-5; [8],0.3 nM
same,IC50,AMO-1; [7],57 nM
same,IC50,AMO-1; [8],1.2 nM
same,IC50,OPM-2; [7],33 nM
same,IC50,OPM-2; [8],0.7 nM
same,IC50,HMC1–8; [7],329 nM
same,IC50,HMC1–8; [8],6.9 nM
same,fraction unbound,[6],0.021
CO[C@H]1/C=C/C[C@H](C)[C@@H](C)S(=O)(=O)NC(=O)c2ccc3c(c2)N(C[C@@H]2CC[C@H]21)C[C@@]1(CCCc2cc(Cl)ccc21)CO3 [AMG176],IC50,KMS-12-BM; [7],184 nM
same,IC50,KMS-12-BM; [8],1.9 nM
same,IC50,KMS-12-PE; [7],1160 nM
same,IC50,KMS-12-PE; [8],12 nM
same,IC50,SNU-16; [7],583 nM
same,IC50,SNU-16; [8],6 nM
same,IC50,PA-1; [7],631 nM
same,IC50,PA-1; [8],6.5 nM
same,IC50,RPMI 8226; [7],291 nM
same,IC50,RPMI 8226; [8],3 nM
same,IC50,A-427; [7],563 nM
same,IC50,A-427; [8],5.8 nM
same,IC50,A-431; [7],641 nM
same,IC50,A-431; [8],6.6 nM
same,IC50,JJN-3; [7],553 nM
same,IC50,JJN-3; [8],5.7 nM
same,IC50,DMS114; [7],282 nM
same,IC50,DMS114; [8],2.9 nM
same,IC50,NCI-H82; [7],476 nM
same,IC50,NCI-H82; [8],4.9 nM
same,IC50,SU-DHL-10; [7],87 nM
same,IC50,SU-DHL-10; [8],0.9 nM
same,IC50,SNU398; [7],495 nM
same,IC50,SNU398; [8],5.1 nM
same,IC50,HCC-1187; [7],330 nM
same,IC50,HCC-1187; [8],3.4 nM
same,IC50,HCC-2157; [7],262 nM
same,IC50,HCC-2157; [8],2.7 nM
same,IC50,MOLP-8; [7],223 nM
same,IC50,MOLP-8; [8],2.3 nM
same,IC50,SU-DHL-5; [7],117 nM
same,IC50,SU-DHL-5; [8],1.2 nM
same,IC50,AMO-1; [7],126 nM
same,IC50,AMO-1; [8],1.3 nM
same,IC50,OPM-2; [7],117 nM
same,IC50,OPM-2; [8],1.2 nM
same,IC50,HMC1–8; [7],583 nM
same,IC50,HMC1–8; [8],6 nM
same,fraction unbound,[6],0.01
